Key:
lysozyme = target: T1, lysozyme (Gallus gallus, UniProt P00698); assay: ANS fluorescence titrated with protein, MCR-ALS scores, one-site fit; assay type: binding; conditions: read-out: K (converted)
T1 construct: gene LYZ

[1] = target: T2, bovine serum albumin (BSA) (Bos taurus, UniProt P02769); assay: as above; assay type: binding; conditions: read-out: K (converted)
T2 construct: gene ALB
T2 sequence (P02769 25-607): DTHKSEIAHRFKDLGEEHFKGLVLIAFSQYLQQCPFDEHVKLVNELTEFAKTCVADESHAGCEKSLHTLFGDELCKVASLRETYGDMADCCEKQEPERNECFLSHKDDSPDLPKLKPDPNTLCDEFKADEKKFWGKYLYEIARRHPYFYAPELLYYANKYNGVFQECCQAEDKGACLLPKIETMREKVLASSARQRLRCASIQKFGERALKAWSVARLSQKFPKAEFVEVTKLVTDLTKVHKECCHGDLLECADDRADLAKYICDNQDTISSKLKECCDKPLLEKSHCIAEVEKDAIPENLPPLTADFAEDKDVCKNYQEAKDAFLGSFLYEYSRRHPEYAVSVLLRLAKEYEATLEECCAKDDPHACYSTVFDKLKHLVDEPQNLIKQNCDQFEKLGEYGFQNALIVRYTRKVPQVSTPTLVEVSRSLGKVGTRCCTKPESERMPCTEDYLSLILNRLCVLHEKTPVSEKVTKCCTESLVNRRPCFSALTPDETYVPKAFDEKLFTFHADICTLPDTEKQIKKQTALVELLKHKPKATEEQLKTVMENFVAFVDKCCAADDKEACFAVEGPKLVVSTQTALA

T1 sequence (P00698 19-147): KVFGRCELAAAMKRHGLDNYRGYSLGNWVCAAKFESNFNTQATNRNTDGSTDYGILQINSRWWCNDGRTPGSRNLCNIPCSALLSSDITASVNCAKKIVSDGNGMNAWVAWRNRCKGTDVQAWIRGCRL

Kd (lysozyme): 172 µM
Kd [1]: 1.06 µM
Structure (SMILES): O=S(=O)(O)c1cccc2cccc(Nc3ccccc3)c12 [8-Anilino-1-naphthalenesulfonic acid]

From PMC7830758, “Revisiting the Rate-Limiting Step of the ANS–Protein Binding at the Protein Surface and Inside the Hydrophobic Cavity” (Molecules, 2021)
